Experimental findings from patent publication US9523100B2, “Pesticidal compositions and related methods” (DOW AGROSCIENCES LLC, priority 2013, dated 2016) are described below.

Where two headings read alike, the source gives them in different places. A value given as a limit tells only on which side of the number the result lay.

The subject of experiment [1] is Green Peach Aphid (GPA) (Myzus persicae) (MYZUPE). Nature of the experiment: Bioassay for Green Peach Aphid (GPA), foliar spray on cabbage seedlings. It is filed as in vivo. The following applies: 72 h, read-out: GPA 200 ppm, % Control (or Mortality) rating. The essentials:
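Cabbage seedlings infested with 20-50 GPA (wingless adults and nymphs) one day before spraying to runoff with 200 ppm compound; four pots per treatment. Live aphids counted after three days at ~25° C; percent control by Abbott's correction against solvent-sprayed plants.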

Experiment [2] has as its system Sweetpotato Whitefly-Crawler (WF) (Bemisia tabaci) (BEMITA). Nature of the experiment: Insecticidal test for Sweetpotato Whitefly-Crawler (WF) in foliar spray assay on cotton plants. It is filed as in vivo. The following applies: 216 h, read-out: WF 200 ppm, % Control (or Mortality) rating. The essentials: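 Cotton plants carrying 200–400 whitefly eggs sprayed to run-off on both leaf surfaces at 200 ppm (acetone/0.025% Tween 20), four plants per treatment. After 9 days at about 25 °C, live 3rd–4th instar nymphs counted; Abbott-corrected percent control versus solvent check.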

Where [3] appears, read: 200 ppm foliar spray on cabbage seedlings, graded after three days, Abbott corrected % control.
Setting [4] is: 200 ppm foliar spray on cotton plants, graded after 9 days, Abbott corrected % control.

In the case of `CCN(C(=O)C1CN(C(=O)OC(C)(C)C)C1)c1cn(-c2cccnc2)nc1Cl` [Compound F26], the figures for the mortality at 200 ppm in experiment [1] (setting [3]) and in experiment [2] (setting [4]) were 80 to 100% and 0 to 80%, respectively.
For `CCN(C(=O)CN(C)C(=O)CC(F)(F)F)c1cn(-c2cccnc2)nc1Cl` [Compound F120, N-(2-((3-Chloro-1-(pyridin-3-yl)-1H-pyrazol-4-yl)(ethyl)amino)-2-oxoethyl)-3,3,3-trifluoro-N-methylpropanamide] the same measures were 80 to 100% and 80 to 100%.
The like results for `CCN(C(=O)CC/C(C)=N\OCCC1CC1(F)F)c1cn(-c2cccnc2)nc1Cl` (stereo not shown) [FA49, (Z)-N-(3-Chloro-1-(pyridin-3-yl)-1H-pyrazol-4-yl)-4-((2-(2,2-difluorocyclopropyl)ethoxy)imino)-N-ethylpentanamide] were, in that order, 0 to 80% and 80 to 100%.
The like results for `CCN(C(=O)C1CCCN(C(=O)CC(F)(F)F)C1)c1cn(-c2cccnc2)nc1Cl` (stereo not shown) [FA42, N-(3-Chloro-1-(pyridin-3-yl)-1H-pyrazol-4-yl)-N-ethyl-1-(3,3,3-trifluoropropanoyl)piperidine-3-carboxamide] were, in that order, 80 to 100% and 0 to 80%.
Consider `CN(CC(=O)N(CC1CC1)c1cn(-c2cccnc2)nc1Cl)C(=O)OC(C)(C)C` [Compound F76, tert-Butyl (2-((3-chloro-1-(pyridin-3-yl)-1H-pyrazol-4-yl)(cyclopropylmethyl)amino)-2-oxoethyl) (methyl)carbamate], for which the mortality at 200 ppm in experiment [1] (foliar) and in experiment [2] (foliar) was 0 to 80% throughout.
Take `CCN(C(=O)CCC(=O)NCCF)c1cn(-c2cccnc2)nc1Cl` [Compound F43, N1-(3-Chloro-1-(pyridin-3-yl)-1H-pyrazol-4-yl)-N1-ethyl-N4-(2-fluoroethyl)succinamide]: the mortality at 200 ppm is 0 to 80% in experiment [1] (setting [3]) and 80 to 100% in experiment [2] (setting [4]).
Turning to `CN(C(=O)CCC(=O)N1CCCC1)c1cn(-c2cccnc2)nc1Cl` [Compound F37, N-(3-Chloro-1-(pyridin-3-yl)-1H-pyrazol-4-yl)-N-methyl-4-oxo-4-(pyrrolidin-1-yl)butanamide], the mortality at 200 ppm in experiment [1] (setting [3]) is 0 to 80%; in experiment [2] (setting [4]), 80 to 100%.
Regarding `CCN(C(=O)CCC(C)=NOC)c1cn(-c2cccnc2)nc1Cl` (mixture of isomers) [Compound F92, (E/Z)-N-(3-chloro-1-(pyridin-3-yl)-1H-pyrazol-4-yl)-N-ethyl-4-(methoxyimino) pentanamide], the mortality at 200 ppm in experiment [1] (setting [3]) and in experiment [2] (setting [4]) was 80 to 100% each time.
For the molecule `CCN(C(=O)CCC=NOCCC1CC1(F)F)c1cn(-c2cccnc2)nc1Cl` (mixture of isomers) [FA61, (E/Z)-N-(3-Chloro-1-(pyridin-3-yl)-1H-pyrazol-4-yl)-4-((2-(2,2-difluorocyclopropyl)ethoxy)imino)-N-ethylbutanamide], the mortality at 200 ppm in experiment [1] (setting [3]) and in experiment [2] (setting [4]) was 80 to 100% throughout.
With `CCN(C(=O)CCC1CCNC1=O)c1cn(-c2cccnc2)nc1Cl` (stereo not shown) [Compound F131, N-(3-chloro-1-(pyridin-3-yl)-1H-pyrazol-4-yl)-N-ethyl-3-(2-oxopyrrolidin-3-yl)propanamide], the mortality at 200 ppm in experiment [1] (setting [3]) and in experiment [2] (setting [4]) was 80 to 100% each time.
For `CCN(C(=O)C(C)C/C=N\OCCC1CC1(F)F)c1cn(-c2cccnc2)nc1Cl` (stereo not shown) [FA59, (Z)-N-(3-Chloro-1-(pyridin-3-yl)-1H-pyrazol-4-yl)-4-((2-(2,2-difluorocyclopropyl)ethoxy)imino)-N-ethyl-2-methylbutanamide], the mortality at 200 ppm in experiment [1] (setting [3]) and in experiment [2] (setting [4]) was 80 to 100% each time.
Regarding `CCN(C(=O)CCC(=O)NCCC(F)(F)F)c1cn(-c2cccnc2)nc1Cl` [Compound F73, N1-(3-Chloro-1-(pyridin-3-yl)-1H-pyrazol-4-yl)-N1-ethyl-N4-(3,3,3-trifluoropropyl) succinamide], the mortality at 200 ppm in experiment [1] (setting [3]) and in experiment [2] (setting [4]) was 80 to 100% throughout.
Consider `Cc1nn(-c2cccnc2)cc1N(C)C(=O)CCC(=O)N(C)C` [Compound F62, N1,N1,N4-trimethyl-N4-(3-methyl-1-(pyridin-3-yl)-1H-pyrazol-4-yl)succinamide], for which the mortality at 200 ppm in experiment [1] (setting [3]) and in experiment [2] (setting [4]) was 80 to 100% throughout.
In the case of `CCN(C(=O)CN(C)C(=O)OC(C)(C)C)c1cn(-c2cccnc2)nc1Cl` [Compound F4, tert-Butyl (2-((3-chloro-1-(pyridin-3-yl)-1H-pyrazol-4-yl)(ethyl)amino)-2-oxoethyl)(methyl)carbamate], the mortality at 200 ppm in experiment [1] (foliar) and in experiment [2] (foliar) was 80 to 100% in each case.
In the case of `CCN(C(=O)C1CCN(C(=O)CCC(F)(F)F)C1)c1cn(-c2cccnc2)nc1Cl` (stereo not shown) [FA10, N-(3-Chloro-1-(pyridin-3-yl)-1H-pyrazol-4-yl)-N-ethyl-1-(4,4,4-trifluorobutanoyl)pyrrolidine-3-carboxamide], the mortality at 200 ppm in experiment [1] (setting [3]) and in experiment [2] (setting [4]) was 80 to 100% throughout.
For `CCN(C(=O)CN1CCCCCC1=O)c1cn(-c2cccnc2)nc1Cl` [Compound F123, N-(3-Chloro-1-(pyridin-3-yl)-1H-pyrazol-4-yl)-N-ethyl-2-(2-oxoazepan-1-yl)acetamide], the values for the mortality at 200 ppm in experiment [1] (setting [3]) and in experiment [2] (setting [4]) were 0 to 80% and 80 to 100%, respectively.
The like results for `CN(C(=O)[C@@H]1C=C[C@H](NC(=O)C(F)(F)F)C1)c1cn(-c2cccnc2)nc1Cl` [Compound F126, (1S,4R)-N-(3-chloro-1-(pyridin-3-yl)-1H-pyrazol-4-yl)-N-methyl-4-(2,2,2-trifluoroacetamido)cyclopent-2-enecarboxamide] were, in that order, 0 to 80% and 80 to 100%.
Consider `CON=C(C)CCC(=O)N(C)c1cn(-c2cccnc2)nc1Cl` (mixture of isomers) [Compound F60, (E/Z)-N-(3-Chloro-1-(pyridin-3-yl)-1H-pyrazol-4-yl)-4-(methoxyimino)-N-methylpentanamide], for which the mortality at 200 ppm in experiment [1] (setting [3]) and in experiment [2] (setting [4]) was 80 to 100% each time.
On to `CCN(C(=O)CCN(C)C(=O)OC(C)(C)C)c1cn(-c2cccnc2)nc1Cl` [Compound F52, tert-Butyl (3-((3-chloro-1-(pyridin-3-yl)-1H-pyrazol-4-yl)(ethyl)amino)-3-oxopropyl)(methyl) carbamate], for which the mortality at 200 ppm in experiment [1] (foliar) and in experiment [2] (foliar) was 80 to 100% in each case.
As to `CN(C(=O)CN1CCSC1=O)c1cn(-c2cccnc2)nc1Cl` [Compound F7, N-(3-Chloro-1-(pyridin-3-yl)-1H-pyrazol-4-yl)-N-methyl-2-(2-oxothiazolidin-3-yl)acetamide], the mortality at 200 ppm in experiment [1] (setting [3]) is 0 to 80%; in experiment [2] (setting [4]), 80 to 100%.
`CCN(C(=O)CCNCC(F)F)c1cn(-c2cccnc2)nc1Cl` [Compound C14, N-(3-chloro-1-(pyridin-3-yl)-1H-pyrazol-4-yl)-3-((2,2-difluoroethyl)amino)-N-ethylpropanamide]: the mortality at 200 ppm in experiment [1] (setting [3]) and in experiment [2] (setting [4]) was 80 to 100% throughout.
Regarding `CCN(C(=O)CCNC(=O)Cc1ccc(F)cc1)c1cn(-c2cccnc2)nc1Cl` [Compound F46, N-(3-Chloro-1-(pyridin-3-yl)-1H-pyrazol-4-yl)-N-ethyl-3-(2-(4-fluorophenyl)acetamido) propanamide], the figures for the mortality at 200 ppm in experiment [1] (setting [3]) and in experiment [2] (setting [4]) were 0 to 80% and 80 to 100%, respectively.
For `CCN(C(=O)CC/C(C)=N\O)c1cn(-c2cccnc2)nc1Cl` [FA46, (Z)-N-(3-Chloro-1-(pyridin-3-yl)-1H-pyrazol-4-yl)-N-ethyl-4-(hydroxyimino)pentanamide] the same measures were 0 to 80% and 80 to 100%.
In the case of `CCN(C(=O)CCn1ccc(C(C)=O)n1)c1cn(-c2cccnc2)nc1Cl` [FA68, 3-(3-Acetyl-1H-pyrazol-1-yl)-N-(3-chloro-1-(pyridin-3-yl)-1H-pyrazol-4-yl)-N-ethylpropanamide], the mortality at 200 ppm in experiment [1] (setting [3]) was under 0%; in experiment [2] (setting [4]) it was 80 to 100%.
On to `CCN(C(=O)CCl)c1cn(-c2cccnc2)nc1Cl` [CA2, 2-Chloro-N-[3-chloro-1-(3-pyridyl)pyrazol-4-yl]-N-ethyl-acetamide], for which the mortality at 200 ppm in experiment [1] (setting [3]) lay in the range of 0 to 80%; in experiment [2] (setting [4]), 80 to 100%.
Take `CCN(C(=O)Cn1ccccc1=O)c1cn(-c2cccnc2)nc1Cl` [Compound F122, N-(3-Chloro-1-(pyridin-3-yl)-1H-pyrazol-4-yl)-N-ethyl-2-(2-oxopyridin-1(2H)-yl)acetamide]: the mortality at 200 ppm in experiment [1] (setting [3]) lay within 0 to 80%; in experiment [2] (setting [4]), 80 to 100%.
As to `CN(CC(=O)N(C)c1cn(-c2cccnc2)nc1Cl)C(=O)OC(C)(C)C` [Compound F90, tert-Butyl (2-((3-chloro-1-(pyridin-3-yl)-1H-pyrazol-4-yl)(methyl)amino)-2-oxoethyl)(methyl) carbamate], the values for the mortality at 200 ppm in experiment [1] (foliar) and in experiment [2] (foliar) were 0 to 80% and 80 to 100%, respectively.
For `CCN(C(=O)CCCC1CN(CC2CC2(F)F)C1=O)c1cn(-c2cccnc2)nc1Cl` (stereo not shown) [Compound F104, N-(3-Chloro-1-(pyridin-3-yl)-1H-pyrazol-4-yl)-4-(1-((2,2-difluorocyclopropyl)methyl)-2-oxoazetidin-3-yl)-N-ethylbutanamide], the mortality at 200 ppm in experiment [1] (setting [3]) and in experiment [2] (setting [4]) was 80 to 100% in each case.
Regarding `CCN(C(=O)C1CCN(C(=O)CC(F)(F)F)CC1)c1cn(-c2cccnc2)nc1Cl` [Compound P16, N-(3-chloro-1-(pyridin-3-yl)-1H-pyrazol-4-yl)-N-ethyl-1-(3,3,3-trifluoropropanoyl) piperidine-4-carboxamide], the mortality at 200 ppm in experiment [1] (setting [3]) lay in the range of 80 to 100%; in experiment [2] (setting [4]), 0 to 80%.
